Measured values published in patent publication US6432995B1, “Aromatic heterocyclic compounds and their use as anti-inflammatory agents” (Boehringer Ingelheim Pharmaceuticals, Inc., priority 1997, dated 2002).

## Cc1ccc(-n2nc(C(C)(C)C)cc2NC(=O)Nc2ccc(F)cc2)cc1C [Example 32, 1-(5-tert-Butyl-2-(3,4-dimethylphenyl)-2H-pyrazol-3-yl)-3-(4-fluorophenyl)urea]
  melting point: 223 to 225 °C
